Entries after “also recorded” stand apart in the source; their conditions may differ.
Experiments:
PSAC [1] = assay: Transport inhibition assay, osmotic lysis of infected cells in sorbitol (Table 5); type: cell-based, P. falciparum
P. falciparum [2] = assay: microbe, parasite or virus in culture; type: cell-based; conditions: for IC50: Plasmodium falciparum, 72 h; for IC50 ratio: RPMI growth IC50 / PLM growth IC50
human HeLa cells = assay: Mammalian cytotoxicity, MTS viability; type: cell-based
Procedure: (§1) Cytotoxicity of PSAC inhibitors was measured with human HeLa cells (ATCC # CLL-2) in 96-well plates at 4000 cells/well. Cultures were incubated with each inhibitor at 37° C. for 72 h in Minimal Essential Medium (Gibco/Invitrogen, Carlsbad, Calif.) supplemented with 10% fetal calf serum. Cell viability was quantified using the vital stain MTS [3-(4,5-dimethylthiazol-2-yl)-5-(3-carboxymethonyphenol)-2-(4-sulfophenyl)-2H-tetrazolium, inner salt], as described (Marshall et al., Growth Regul., 5: 69-84 (1995)). The reported CC50 value is the concentration of an inhibitor that reduces conversion of MTS to formazan by 50%.

[3] = Mammalian cytotoxicity, MTS viability; type: cell-based, human; conditions: human, HeLa cells; 72 h, MTS; read-out: HeLa cell CC50
Procedure: as §1

PSAC [4] = assay: K0.5 for PSAC block, light-scattering osmotic lysis assay in sorbitol (Example 1); type: cell-based, P. falciparum; conditions: for IC50: read-out: K0.5 for PSAC block, concentration producing 50% block of PSAC-mediated solute uptake; for K0.5 for PSAC block: concentration producing 50% block of PSAC-mediated solute uptake
Excerpt: The chemical inhibitors included:
In this assay, increases in transmittance (% T, measured at 700 nm) correlated directly to lysis of infected RBCs and were plotted in arbitrary units. Uninfected RBCs lacked PSAC activity and had undetectably low sorbitol permeability.

P. falciparum [5] = assay: In vitro parasite killing, SYBR Green I fluorescence assay in RPMI 1640 or PLM (Example 1); type: cell-based; conditions: for IC50: Plasmodium falciparum, 72 h; for Ratio (RPMI/PLM): ratio of IC50 RPMI/PLM
Procedure: In vitro parasite killing by PSAC inhibitors was quantified using a SYBR Green I-based fluorescence assay for parasite nucleic acid in 96-well format.
Cultures were maintained for 3 days at 37° C. in 5% 02, 5% CO2 without media change. After this incubation, Sybr Green I was added in 20 mM Tris, 10 mM EDTA, 0.016% saponin, 1.6% triton X100.

[6] = 37° C., read-out: Transport inhibition K0.5
[7] = PSAC-limiting medium (PLM), 3 days, read-out: PLM IC50
[8] = RPMI 1640 standard media, 3 days, read-out: RPMI IC50

SMILES | IC50 (PSAC [1]; [6]) [µM] | IC50 (P. falciparum [2]; read-out: PLM growth IC50) [µM] | IC50 (P. falciparum [2]; read-out: RPMI growth IC50) [µM] | IC50 ratio (P. falciparum [2]) | specificity (HeLa CC50/parasite PLM IC50) (human HeLa cells) | CC50 at 72 h [3] [µM] | further results
O=C1Nc2cc(C(=O)N3CCN(c4ccccc4)CC3)ccc2Sc2ccccc21 [(3) (TP-52)] | 0.025 | 0.19 | 7.3 | 38 | >530 | > 100 | 
O=C1CN(/N=C/c2ccc(-c3ccc([N+](=O)[O-])cc3)o2)C(=O)N1 [dantrolene, reference compound] | 1.2 | 3.8 | 42 | 18 |  |  | 
COc1ccc2cc3cc(C(=O)N(C)C4CCCCC4)oc3nc2c1 [(25)] | 0.033 | 0.17 | 15 | 86 |  |  | 
CC1=Nc2ccc(C)cc2C1/C=C1/C(=N)N2N=C(S(=O)(=O)CC(C)C)SC2=NC1=O (centres unmarked) [Cpd 50] | 0.081 | 2 | > 30 | >15 | >50 | > 100 | 
NS(=O)(=O)c1cc(C(=O)O)c(NCc2ccco2)cc1Cl [furosemide, reference compound] |  | 21 | > 200 |  |  |  | 
Cc1ccc(C)c(N2CCN(S(=O)(=O)c3ccc(-c4ccc(=O)[nH]n4)s3)CC2)c1 [Compound of formula (1a)] |  |  |  |  |  |  | IC50 (PSAC [4]): 0.003 µM; IC50 (P. falciparum [5]; [7]): 0.0023 µM; IC50 (P. falciparum [5]; [8]): 1.5 µM; Ratio (RPMI/PLM) (P. falciparum [5]): 800
CCN(CC)CCCC(C)Nc1ccnc2cc(Cl)ccc12 (centres unmarked) [chloroquine, reference compound] |  | 0.34 | 0.22 |  |  |  | K0.5 for PSAC block (PSAC [4]): did not inhibit PSAC activity; Transport inhibition K0.5 (PSAC [1]; 37° C.): do not inhibit PSAC-mediated solute uptake; also recorded: inactive; IC50 (P. falciparum [5]; read-out: PLM IC50): 0.34 µM; IC50 (P. falciparum [5]; read-out: RPMI IC50): 0.22 µM
OC(c1cc(C(F)(F)F)nc2c(C(F)(F)F)cccc12)C1CCCCN1 (centres unmarked) [mefloquine] |  |  |  | 0.66 |  |  | K0.5 for PSAC block (PSAC [4]): did not inhibit PSAC activity; K0.5 for PSAC block (PSAC [4]; listed as Mefloquine): inactive; Transport inhibition K0.5 (PSAC [1]; 37° C.): do not inhibit PSAC-mediated solute uptake; also recorded: inactive; IC50 (P. falciparum [5]; [7]): 0.033 µM; IC50 (P. falciparum [5]; [8]): 0.022 µM; Ratio (RPMI/PLM) (P. falciparum [5]): 0.66
CCCCN(CC)C(=O)c1cc2cc3ccc(C)cc3nc2o1 [(24)] | 0.087 | 0.27 | 23 | 114 | 110 | 30 | 
Cc1ccc(C)c(N2CCN(S(=O)(=O)c3ccc(-c4ccc(=O)[nH]n4)s3)CC2)c1 [ISG-21] | 0.0026 | 0.002 |  | 800 | 43,000 | 86 | 
CCc1nn2c(=O)cc(CSc3nc4ccc(NC(=O)c5cccs5)cc4s3)nc2s1 [Compound of formula (2a)] |  |  |  |  |  |  | IC50 (PSAC [4]): 0.01 µM; IC50 (P. falciparum [5]; [7]): 0.3 µM; IC50 (P. falciparum [5]; [8]): > 30 µM; Ratio (RPMI/PLM) (P. falciparum [5]): >100
O=C1N=C(N2CCCC2)S/C1=C/c1cccc(Cl)c1 [Cpd 80] | 0.044 | 0.17 | 12.5 | 130 |  |  | 
CCN(Cc1ccccc1)C(=O)c1ccc2c(c1)NC(=O)c1ccccc1S2 [(31)] | 0.084 | 0.41 | 4.7 | 15 | >240 | > 100 | 
COc1ccc(NC(=O)c2cc3cc4ccc(C)cc4nc3o2)cc1 [(280)] |  | 0.23 | 18 | 270 | >430 | > 100 | IC50 (PSAC [1]; read-out: Transport inhibition K0.5, 37° C.): 0.006 µM
C[C@@H]1CC[C@H]2[C@@H](C)C(=O)O[C@@H]3O[C@@]4(C)CC[C@@H]1[C@]32OO4 [artemisinin] |  |  |  | 0.66 |  |  | K0.5 for PSAC block (PSAC [4]): did not inhibit PSAC activity; K0.5 for PSAC block (PSAC [4]; listed as Artemisinin): inactive; Transport inhibition K0.5 (PSAC [1]; 37° C.): do not inhibit PSAC-mediated solute uptake; also recorded: inactive; IC50 (P. falciparum [5]; [7]): 0.026 µM; IC50 (P. falciparum [5]; [8]): 0.018 µM; Ratio (RPMI/PLM) (P. falciparum [5]): 0.66
